Measurements published in the CheMixHub viscosity set.

Assay: xn = mol fraction of the nth substance listed

OCCc1ccccc1 + Cc1ccccc1N
viscosity [mPa·s], 100 kPa
Conditions	x2 = 0.0857	x2 = 0.1652	x2 = 0.2724	x2 = 0.3731	x2 = 0.4711	x2 = 0.6147	x2 = 0.7123	x2 = 0.8105	x2 = 0.8904
303.15 K	8.539	8.086	7.473	6.895	6.332	5.503	4.937	4.366	3.9
308.15 K	7.247	6.868	6.356	5.874	5.402	4.708	4.234	3.755	3.364
313.15 K	6.014	5.714	5.307	4.923	4.548	3.994	3.616	3.234	2.921
318.15 K	4.751	4.532	4.234	3.952	3.676	3.269	2.991	2.708	2.476

CCCCCCCC(=O)O + ClC(Cl)(Cl)Cl
298.15 K, 101 kPa
Conditions	viscosity [mPa·s]
x1 = 0.05	1.011
x1 = 0.11	1.124
x1 = 0.16	1.248
x1 = 0.21	1.38
x1 = 0.42	2.021
x1 = 0.52	2.406
x1 = 0.62	2.867
x1 = 0.81	3.905

N#CCCl + ClC(Cl)(Cl)Cl
viscosity [mPa·s], 101 kPa
Conditions	293.15 K	298.15 K	303.15 K	313.15 K	323.15 K
x1 = 0.014	0.983	0.907	0.844	0.749	0.672
x1 = 0.087	0.939	0.867	0.803	0.71	0.633
x1 = 0.222	0.914	0.841	0.78	0.688	0.615

ClCCOCCCl + FB(F)F
101 kPa, x2 = 0.0939
Conditions	viscosity [mPa·s]
293.15 K	23.94
303.15 K	14.59
313.15 K	9.569
323.15 K	6.506

C1COCOC1 + NC=O
viscosity [mPa·s], 101 kPa
Conditions	x2 = 0.6012	x2 = 0.6156	x2 = 0.8658	x2 = 0.8689	x2 = 0.9552	x2 = 0.9555
298.15 K	2.039	–	3.119	–	–	3.328
313.15 K	–	1.581	–	2.196	2.366	–

CC(C)C(C)O (centres undefined) + NCc1ccccc1
viscosity [mPa·s], 101.33 kPa
Conditions	x2 = 0.0999	x2 = 0.2	x2 = 0.3002	x2 = 0.4001	x2 = 0.4997	x2 = 0.5998	x2 = 0.6999	x2 = 0.7997	x2 = 0.9
298.15 K	3.336	3.109	2.89	2.683	2.49	2.315	2.131	1.96	1.81
303.15 K	2.903	2.663	2.443	2.249	2.084	1.927	1.792	1.673	1.571
308.15 K	2.388	2.184	2.009	1.853	1.724	1.614	1.521	1.449	1.404

Clc1ccccc1Cl + Nc1cccc(Cl)c1
viscosity [mPa·s], 100 kPa
Conditions	x2 = 0.1053	x2 = 0.2011	x2 = 0.3045	x2 = 0.4064	x2 = 0.507	x2 = 0.6062	x2 = 0.7041	x2 = 0.8007	x2 = 0.906
303.15 K	1.568	1.866	2.184	2.495	2.799	3.097	3.389	3.674	3.983
308.15 K	1.444	1.71	1.995	2.274	2.546	2.812	3.072	3.326	3.6
313.15 K	1.319	1.555	1.807	2.053	2.293	2.527	2.756	2.979	3.22
318.15 K	1.206	1.412	1.629	1.842	2.048	2.25	2.447	2.639	2.845

Oc1ccccc1Cl + Nc1ccccc1
101 kPa
Conditions	viscosity [mPa·s]
293.15 K, x1 = 0.1176	5.78
293.15 K, x1 = 0.2278	7.74
293.15 K, x1 = 0.3271	9.6
293.15 K, x1 = 0.3874	10.56
293.15 K, x1 = 0.4366	11.24
293.15 K, x1 = 0.4885	11.66
293.15 K, x1 = 0.5271	11.76
293.15 K, x1 = 0.5756	11.48
293.15 K, x1 = 0.6117	10.96
293.15 K, x1 = 0.7174	9.04
293.15 K, x1 = 0.8625	6.3
298 K, x1 = 0.1032	4.945
298 K, x1 = 0.2004	6.157
298 K, x1 = 0.3011	7.228
298 K, x1 = 0.4069	8.07
298 K, x1 = 0.5008	8.81
298 K, x1 = 0.6002	8
298 K, x1 = 0.7016	6.99
298 K, x1 = 0.7852	5.942
298 K, x1 = 0.9025	4.443
303 K, x1 = 0.1032	4.142
303 K, x1 = 0.2004	5.008
303 K, x1 = 0.3011	5.792
303 K, x1 = 0.4069	6.329
303 K, x1 = 0.5008	6.859
303 K, x1 = 0.6002	6.232
303 K, x1 = 0.7016	5.602
303 K, x1 = 0.7852	4.74
303 K, x1 = 0.9025	3.702
303.15 K, x1 = 0.1176	4.05
303.15 K, x1 = 0.2278	5.06
303.15 K, x1 = 0.3271	5.93
303.15 K, x1 = 0.3874	6.39
303.15 K, x1 = 0.4366	6.72
303.15 K, x1 = 0.4885	6.93
303.15 K, x1 = 0.5271	6.95
303.15 K, x1 = 0.5756	6.86
303.15 K, x1 = 0.6117	6.7
303.15 K, x1 = 0.7174	5.8
303.15 K, x1 = 0.8625	4.31
308 K, x1 = 0.1032	3.556
308 K, x1 = 0.2004	4.265
308 K, x1 = 0.3011	4.728
308 K, x1 = 0.4069	4.979
308 K, x1 = 0.5008	5.417
308 K, x1 = 0.6002	4.922
308 K, x1 = 0.7016	4.511
308 K, x1 = 0.7852	3.826
308 K, x1 = 0.9025	3.108
313 K, x1 = 0.1032	3.11
313 K, x1 = 0.2004	3.638
313 K, x1 = 0.3011	3.9
313 K, x1 = 0.4069	4.024
313 K, x1 = 0.5008	4.382
313 K, x1 = 0.6002	3.966
313 K, x1 = 0.7016	3.75
313 K, x1 = 0.7852	3.283
313 K, x1 = 0.9025	2.744
313.15 K, x1 = 0.1176	2.945
313.15 K, x1 = 0.2278	3.54
313.15 K, x1 = 0.3271	3.99
313.15 K, x1 = 0.3874	4.2
313.15 K, x1 = 0.4366	4.33
313.15 K, x1 = 0.4885	4.39
313.15 K, x1 = 0.5271	4.4
313.15 K, x1 = 0.5756	4.34
313.15 K, x1 = 0.6117	4.24
313.15 K, x1 = 0.7174	3.79
313.15 K, x1 = 0.8625	3.01
318 K, x1 = 0.1032	2.671
318 K, x1 = 0.2004	3.036
318 K, x1 = 0.3011	3.241
318 K, x1 = 0.4069	3.322
318 K, x1 = 0.5008	3.611
318 K, x1 = 0.6002	3.27
318 K, x1 = 0.7016	3.137
318 K, x1 = 0.7852	2.853
318 K, x1 = 0.9025	2.446

CCCCC[NH3+].O=[N+]([O-])[O-] + O
298 K, 101 kPa
Conditions	viscosity [mPa·s]
x2 = 0.2	69.13
x2 = 0.299	47.41
x2 = 0.399	30.46
x2 = 0.499	20.51
x2 = 0.6	14.23
x2 = 0.702	9.1
x2 = 0.799	5.47
x2 = 0.9	2.71
x2 = 0.95	1.67
